“Also recorded” adds a separate entry of the source. Read-outs that look alike come from different tables or passages of the source.
B1: Miraculin (protein, UniProt P13087 30-220, looked up)
Miraculin: DSAPNPVLDIDGEKLRTGTNYYIVPVLRDHGGGLTVSATTPNGTFVCPPRVVQTRKEVDHDRPLAFFPENPKEDVVRVSTDLNINFSAFMPCRWTSSTVWRLDKYDESTGQYFVTIGGVKGNPGPETISSWFKIEEFCGSGFYKLVFCPTVCGSCKVKCGDVGIYIDQKGRRRLALSDKPFAFEFNKTVYF

Assays:
[1] = tested on: sweet taste (10% sucrose reference); experiment: Duration of sweet taste blockade: sensory panelist rates sweetness intensity (SI) of 10% sucrose after 5 min oral exposure to sample; assay type: in vivo, human; conditions: for SI: 0-10 scale, 10% sucrose=10; for sweet taste inhibition following exposure of the oral cavity (in words): in vivo
Method: A standard method was developed to quantify the duration of sweet taste blockade for the gymnemic acid compositions of the present invention. […] In all cases, sucrose was used as the sweetener in sweet taste blockade quantification. Thus, 10%, 8%, 6%, 4%, and 2% (w/v) sucrose solutions in reverse osmosis (RO) purified water were freshly prepared and, at the beginning of each experiment, 15 mL samples of each sucrose solution were used to calibrate sensory panelist on sweetness intensity. The sensory panelist is described as a person with training in sensory evaluation with at least 1 year of experience as a sensory panelist in the area of gustatation, and preferably with training in descriptive analysis. Standard scaling methodology was used for quantification of sweetness intensity (SI) on the following scale: • 10% sucrose=10, • 8% sucrose=8, • 6% sucrose=6, • 4% sucrose=4, • 2% sucrose=2, and • 0% sucrose=0.
Following panelist calibration with the sucrose reference standards, the panelist rinsed their mouth with 15 mL RO water and the sweetness inhibitor sample in 15 mL RO water was then immediately taken into the mouth and gently agitated for 5 minutes. The sweet taste inhibitor sample was then expectorated and a 15 mL sample of the 10% sucrose reference solution was then immediately re-tasted, perceived SI within 15 seconds was rated on the 0-10 scale, the sample expectorated, and the mouth rinsed vigorously with 15 mL RO water. The 10% sucrose sample was then re-tasted every 15 min and SI rated. The panelist was asked to make comments on the observations of non-sweet taste attributes at each sucrose reference tasting interval.

[2] = tested on: bitter taste of bitter compounds (quinine, denatonium benzoate, tetralone, sucrose octaacetate, pseudoephedrine, dextromethorphan); conditions: cited from earlier work
[3] = 10% sucrose re-tasted at 15 min
[4] = 10% sucrose re-tasted at 30 min
[5] = 10% sucrose re-tasted at 45 min
[6] = 10% sucrose re-tasted at 60 min
[7] = 10% sucrose re-tasted at 75 min
[8] = 10% sucrose re-tasted at 90 min
[9] = 10% sucrose re-tasted at 105 min
[10] = 10% sucrose re-tasted at 120 min
[11] = 10% sucrose tasted at 0 min after expectoration of sample (in 15 mL RO water, held 5 min)

Row | Molecule | SI [1, 3] | SI [1, 4] | SI [1, 5] | SI [1, 6] | SI [1, 7] | SI [1, 8] | SI [1, 9] | SI [1, 10] | SI [1, 11] | sweet taste inhibition following exposure of the oral cavity (in words) [1] | bitterness inhibitory activity ([2]; against denatonium benzoate) | bitterness inhibitory activity ([2]; against dextromethorphan) | bitterness inhibitory activity ([2]; against pseudoephedrine) | bitterness inhibitory activity ([2]; against quinine) | bitterness inhibitory activity ([2]; against sucrose octaacetate) | bitterness inhibitory activity ([2]; against tetralone) | inhibition of the bitterness of quinine hydrochloride (QHCl) ([2]; up to)
1 | COc1ccc(OC(C)C(=O)O)cc1 (stereo not drawn) [Lactisole] | 10 | 10 | 10 | 10 | 10 | 10 | 10 | 10 | 12 | no sweet taste inhibition was observed; also recorded: caused no sweetness inhibition following expectoration |  |  |  |  |  |  | 
2 | O=S(=O)([O-])[O-].[Zn+2] [zinc sulfate] |  |  |  |  |  |  |  |  |  |  | effective bitterness inhibitor | no significant bitterness inhibitory activity | no significant bitterness inhibitory activity | effective bitterness inhibitor | no significant bitterness inhibitory activity | effective bitterness inhibitor | up to 70%
3 | B1 | 10 | 10 | 10 | 10 | 10 | 10 | 10 | 10 | 10 | No sweet taste inhibitory effect was observed |  |  |  |  |  |  | 
